Data set [1] can be described thus: Bioavailability in rats, blood levels by HPLC. The class given is in vivo. The settings on record: rat, oral gavage, 50 mg/kg single dose, .05h, whole blood.
The test system of data set [2] is human peripheral blood lymphocytes (PBC). Nature of the data set: Mitogenesis assay, PMA plus ionomycin stimulated proliferation. It is filed as cell-based. The settings on record: Lymphocyte, 3 h, read-out: PMA.
From the text: (§4) Fresh peripheral blood lymphocytes (PBLs) from LeukoPak cells or whole blood from random normal blood donors (tested HIV-negative and hepatitis negative) are isolated and separated by density centrifugation over Histopaque 1077 (Sigma Chemical Co., St. Louis, MO). […] The human allogeneic B cell lines used for activation of the fresh PBLs are EBV-transformed lymphocytes from normal healthy adult donors with two completely different HLA haplotypes. All cell lines were routinely tested for the presence of Mycoplasma contamination using the Gibco Mycotect test kit and are Mycoplasma-free. Culture medium consists of RPMI 1640 (Gibco, Grand Island, NY) containing penicillin (50 U/ml) and streptomycin (50 µg/ml), L-glutamine 2 mM, 2 mercaptoethanol (5 x 10^-5), 10% heat-inactivated FCS and 10 mM HEPES.
The target in a further data set is FK-506 binding protein (Homo sapiens, UniProt P62942). Description: Competitive binding assay with [3H]dihydro-FK-506. The settings on record: binding to FKBP; apparent Kd, competition with [3H]dihydro-FK-506.
Chain of FK-506 binding protein (P62942 whole entry): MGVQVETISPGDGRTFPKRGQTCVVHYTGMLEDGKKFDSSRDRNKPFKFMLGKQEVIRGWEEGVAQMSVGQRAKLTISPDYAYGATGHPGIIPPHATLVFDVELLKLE
The subject of data set [3] is CTLL-20 murine T cell line. Nature of the data set: IL-2 microassay, IL-2 dependent CTLL proliferation. It is filed as cell-based. To be noted: Mus musculus; inhibition of proliferation of cytotoxic T cells stimulated by IL-2; read-out: CTLL.
From the text: as §4
Data set [4] concerns PBLs stimulated with JVM human viral-transformed B lymphoblastoid cell line. Description: MLR bioassay, PBLs stimulated with JVM cells. The class given is cell-based. The settings on record: mixed lymphocyte reaction, JVM stimulator cells, inhibition of proliferation, read-out: JVM. From the text:
(§1) Fresh peripheral blood lymphocytes (PBLs) from LeukoPak cells or whole blood from random normal blood donors (tested HIV-negative and hepatitis negative) are isolated and separated by density centrifugation over Histopaque 1077 (Sigma Chemical Co., St. Louis, MO). The murine CTLL cytotoxic T cell line and the human Jurkat T cell line are from ATCC (CTLL-2 ATCC TIB214, JURKAT CLONE E6-1 ATCC TIBl52). The human allogeneic B cell lines used for activation of the fresh PBLs are EBV-transformed lymphocytes from normal healthy adult donors with two completely different HLA haplotypes. All cell lines were routinely tested for the presence of Mycoplasma contamination using the Gibco Mycotect test kit and are Mycoplasma-free. Culture medium consists of RPMI 1640 (Gibco, Grand Island, NY) containing penicillin (50 U/ml) and streptomycin (50 µg/ml), L-glutamine 2 mM, 2 mercaptoethanol (5 x 10^-5), 10% heat-inactivated FCS and 10 mM HEPES.
(§2) All chemical stocks were dissolved in DMSO.
(§3) Antigen activated proliferation of PBLs in a primary mixed lymphocyte reaction was assessed in the presence or absence of different concentrations of tested compounds and control drugs. 5 x 10^4 fresh PBLs were stimulated with 5 x 10^3 of Mitomycin C treated-allogeneic EBV-transformed […] cells, LB and JVM, in a final volume of 200 µl per well in 96-well round-bottomed plates (Mishell, B.B. and S.M. Shiigi, Selected Methods in Cellular Immunology W.H. Freeman and Co., San Francisco, CA (1980); Nelson, P.A. et al., Transplantation 50:286 (1990)). Cultures were pulsed on day 6, harvested 24 h later and counted as in previous section.

The nature of data set [5]: Bioavailability in rats, blood levels by HPLC. The class given is in vivo. To be noted: rat, 50 mg/kg single dose, whole blood. Here is the method:
Bioavailability of compound (20) was determined in rats. A single dose of 50 mg/kg was administered by oral gavage or intraperitoneal (IP) injection in a vehicle consisting of olive oil-10% ethanol. Thereafter, animals were sacrificed at 0.5, 1, 2, 4, 8 and 12 hr, blood was collected into sodium heparin and immediately frozen. Whole blood was extracted with acetonitrile-methanol (90/10 vol:vol) and the concentration of compound per ml of blood was determined by HPLC. […] After oral administration, blood levels of 0.5µM, 1µM, 2µM, 12µM, and 3µM were measured at .05h, 1h, 2h, 4h, and 8h, respectively.

Data set [6] deals with human peripheral blood lymphocytes (PBC). Nature of the data set: Mitogenesis assay, OKT3 stimulated proliferation. It is filed as cell-based. To be noted: Lymphocyte, OKT3 (10^-4 dilution final), inhibition of proliferation, 3H-thymidine, read-out: OKT3.
From the text: as §4
The subject of data set [7] is PBLs stimulated with LB human viral-transformed B lymphoblastoid cell line. Description: MLR bioassay, PBLs stimulated with LB cells. To be noted: mixed lymphocyte reaction, LB stimulator cells, inhibition of proliferation, read-out: LB. It is filed as cell-based.
From the text: as §1, §2, §3

Another data set addresses FKBP (Homo sapiens, UniProt P62942). Nature of the data set: Inhibition of FKBP PPIase (rotamase) activity, chymotrypsin-coupled assay. It is filed as biochemical. The settings on record: apparent Ki. The source says: The inhibition of the PPIase (rotamase) enzyme activity of the FKBP (apparent "Ki" values) can also be measured according to the methods described by either Harding, M.W. et al., Nature 341:758-760 (1989) or Siekierka, J.J. et al., Nature 341:755-757 (1989). The cis-trans isomerization of the […] peptide bond in a model substrate, N-succinyl-Ala-Ala-Pro-Phe-p-nitroanilide, is monitored spectrophotometrically in a coupled assay with chymotrypsin, which releases 4-nitroanilide from the trans form of the substrate. Fischer, G. et al., Nature 337:476-478 (1989). The inhibitory effect of the addition of different concentrations of inhibitor on the extent of the reaction is determined, and analysis of the change in first order rate constant as a function of inhibitor concentration yields an estimate of the apparent Ki value.

The test system of data set [8] is T-cell clone stimulated with antibody to the T-cell receptor (TCR) and antibody to CD2. Description: Table 3 assay 2: T-cell hybridoma + TCR/CD2 proliferation. It is filed as cell-based. The settings on record: (3H)TdR incorporation, estimated.
In data set [9] the test system is fresh human peripheral blood lymphocytes. Description: Table 3 assay 1: human PBL + OKT3 proliferation. The class given is cell-based. To be noted: Lymphocyte, OKT3 antibody (anti-CD3) stimulation, (3H)TdR incorporation, estimated.
Another data set concerns T-cell hybridoma. Nature of the data set: Table 3 assay 3: apoptosis, activation-induced (anti-CD3) cell death. It is filed as cell-based. The settings on record: at 1µg/ml; inhibition of activation-induced cell death, viable cell count.
The next data set relates to CTLL cells. Nature of the data set: Table 3 assay 4: CTLL proliferation + IL-2. The settings on record: Mus musculus, exogenous IL-2, (3H)TdR incorporation. The class given is cell-based.

pIC50, pKd, pKi: −log10 of the molar value.

Chain of FKBP (P62942 whole entry): as above

Consider `COc1cc(C(=O)C(=O)N2CCCC[C@H]2C(=O)OC(CCCc2ccccc2)CCCc2ccccn2)cc(OC)c1OC` (stereo partly drawn) [Compound 20], for which, in data set [1], the concentration at 0.05 h turned out to be 500 nM. In addition, the pIC50 was 5.77 in [2]; 5.70 in data set [3]; 5.60 in [4]; 5.70 in data set [6]; 5.70 in data set [7]. Also, the pKd at FK-506 binding protein was 8.40. This compound registered a concentration at 0.5 h in data set [5] (IP, 0.5h) of 700 nM. Also, the concentration at 1 h came to 22000 nM in data set [5] (IP) and 1000 nM in data set [5] (oral gavage). Also, the concentration at 2 h in data set [5] (IP) is 225000 nM; in data set [5] (oral gavage), 2000 nM. Further, the figures for the concentration at 4 h in data set [5] (IP) and in data set [5] (oral gavage) were 45000 nM and 12000 nM, respectively. Also, the concentration at 8 h in data set [5] (IP) is 1000 nM; in [5] (oral gavage) it was 3000 nM. At FKBP, the pKi was 9.00.
As to `CO[C@H]1C[C@@H]2CC[C@@H](C)[C@@](O)(O2)C(=O)C(=O)N2CCCC[C@H]2C(=O)O[C@H]([C@H](C)C[C@@H]2CC[C@@H](O)[C@H](OC)C2)CC(=O)[C@H](C)/C=C(\C)[C@@H](O)[C@@H](OC)C(=O)[C@H](C)C[C@H](C)/C=C/C=C/C=C/1C` [Rapamycin], the IC50 was less than 1 µg/mL in [8], less than 1 µg/mL in data set [9] and roughly 0.01 µg/mL in the data set on CTLL cells. The Apoptosis entry with T-cell hybridoma was “Inactive at 1µg/ml”.

What is called pKd is −log10 of the Kd, conventionally taken in molar units. The pKi is −log10 of the Ki, conventionally taken in molar units. As a reminder, the IC50 is the concentration needed to halve the response being measured.

Source of the values: patent EP0584223B1, “NOVEL IMMUNOSUPPRESSIVE COMPOUNDS” (VERTEX PHARMACEUTICALS INCORPORATED, priority 1991, dated 1992).
